Reference: patent US11584733B2, “Selective histone deacetylase inhibitors for the treatment of human disease” (Shuttle Pharmaceuticals, Inc., priority 2017, dated 2023)
“And” between values parts separate entries of the source, which are not always exact repeats. Identical values can stand only once. “Also recorded” adds a separate entry of the source.

Molecular target: T1, Human recombinant HDAC6 (Homo sapiens, UniProt Q9UBN7)
T1 sequence (Q9UBN7 1-1215): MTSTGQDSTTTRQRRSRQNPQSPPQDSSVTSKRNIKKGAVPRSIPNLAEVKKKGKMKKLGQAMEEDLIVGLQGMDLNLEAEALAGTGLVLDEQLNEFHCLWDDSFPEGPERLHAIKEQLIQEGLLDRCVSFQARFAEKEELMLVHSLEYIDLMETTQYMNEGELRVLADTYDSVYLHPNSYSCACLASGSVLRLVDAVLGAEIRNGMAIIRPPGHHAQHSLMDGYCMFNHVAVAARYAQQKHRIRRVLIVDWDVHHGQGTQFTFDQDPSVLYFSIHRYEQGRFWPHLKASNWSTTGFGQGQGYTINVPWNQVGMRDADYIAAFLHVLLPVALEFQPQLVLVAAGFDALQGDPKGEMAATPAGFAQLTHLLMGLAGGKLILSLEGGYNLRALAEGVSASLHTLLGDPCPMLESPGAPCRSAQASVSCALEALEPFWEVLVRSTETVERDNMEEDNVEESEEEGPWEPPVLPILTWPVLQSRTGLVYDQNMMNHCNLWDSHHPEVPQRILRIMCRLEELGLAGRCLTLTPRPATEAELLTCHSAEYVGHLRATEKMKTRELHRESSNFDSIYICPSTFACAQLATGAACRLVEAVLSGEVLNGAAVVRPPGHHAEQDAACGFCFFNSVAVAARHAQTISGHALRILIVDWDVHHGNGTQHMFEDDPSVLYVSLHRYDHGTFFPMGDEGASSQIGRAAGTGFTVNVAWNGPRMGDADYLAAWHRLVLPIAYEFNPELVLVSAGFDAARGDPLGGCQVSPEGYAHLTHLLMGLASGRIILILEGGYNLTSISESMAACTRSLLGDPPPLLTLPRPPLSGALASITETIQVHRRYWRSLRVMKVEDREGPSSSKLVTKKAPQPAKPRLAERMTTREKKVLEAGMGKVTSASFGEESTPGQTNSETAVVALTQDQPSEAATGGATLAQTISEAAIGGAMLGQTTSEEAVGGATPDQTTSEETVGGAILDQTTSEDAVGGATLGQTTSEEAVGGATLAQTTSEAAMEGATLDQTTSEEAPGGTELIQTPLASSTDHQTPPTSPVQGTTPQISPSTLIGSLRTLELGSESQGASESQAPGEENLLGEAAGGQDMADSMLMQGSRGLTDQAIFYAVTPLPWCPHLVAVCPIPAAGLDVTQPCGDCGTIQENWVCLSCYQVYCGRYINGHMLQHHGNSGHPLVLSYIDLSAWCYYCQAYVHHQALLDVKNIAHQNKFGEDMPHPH
Assay: HDAC isomer assay, Fluor-de-Lys, HDAC6
Type: biochemical
Conditions: for EC50: Example 4, FIGS. 5, 6 and 8, read-out: EC50 against HDAC6; for greater potency for HDAC6 as compared to HDAC1: FIG. 14; for selectivity for HDAC6 as compared to pan-HDACs (and HDAC1, HDAC3), in words: FIGS. 1, 7, 8, 18
Method: The HDAC isomer (HDAC1, 3, and 6) assays were performed as follows:
Materials: Human recombinant HDAC isomer (HDAC1, HDAC3, and HDAC6); Fluor-de-Lys HDAC substrates; 360 nm excitation 460 nm emission Plate Reader; Disposable pipettes; Pipet-aid; Pipette tips; Micro-pipetter; DMSO; Sterile micro-tubes and conical tubes; and Micro-centrifuge.
Test compounds and control preparation: All test compounds' stock solutions were made in 100% DMSO. Test compound dilutions were made in HDAC Assay buffer with a final concentration of DMSO less than or equal to 1%. Vehicle control was HDAC Assay buffer with 1% DMSO.
The reagents for the assay were prepared as follows:
1. All kit components were defrosted and these, and all dilutions described below, were kept on ice until use.
2. A sufficient amount of HDAC source diluted in Assay Buffer (BML-KI143) was prepared to provide for the assays that were performed (# of wells×15 μl). A 30-fold dilution of the HeLa Extract means that 15p L contains 0.5 μl of the undiluted Extract, an appropriate amount to use per well.
3. Dilution(s) of SAHA and/or Test Inhibitors were prepared in Assay Buffer (BML-KI143). Since 10 μl were used per well, and since the final volume of the HDAC reaction was 50p, these inhibitor dilutions were 5× their final concentration.
4. Dilution(s) of the Fluor de Lys® Substrate (BML-KI104; 50 mM) were prepared in Assay Buffer (BML-KI143) that were 2× the desired final concentration(s). For inhibitor screening, substrate concentrations at or below the Km are recommended. Twenty-five μL were used per well. […] Rapid mixing and dilution into room temperature buffer helped to prevent precipitation at high substrate concentration.
5. Shortly before use (<30 min.), sufficient Fluor de Lys® Developer was prepared for the assays to be performed (50 μl per well). First, the Fluor de Lys® Developer Concentrate was diluted 20-fold (e.g. 50 μl plus 950 μl Assay Buffer) in cold Assay Buffer (BML-K1143). […] The addition of SAHA to the Developer insures that HDAC activity stops when the Developer is added. The Developer was kept on ice until use.
1. Assay buffer, diluted trichostatin A or test inhibitor was added to appropriate wells of the microtiter plate.
2. Diluted HeLa extract or other HDAC sample was added to all wells except those that are to be “No Enzyme Controls.”
3. Diluted Fluor de Lys® Substrate and the samples in the microtiter plate were allowed to equilibrate to assay temperature (e.g. 25 or 37° C.).
4. HDAC reactions were initiated by adding diluted substrate (25 μl) to each well and mixing thoroughly.
5. HDAC reactions were allowed to proceed for desired length of time and then stop them by addition of Fluor de Lys® Developer (50 μl). The plates were incubated at room temperature (25° C.) for 10-15 min.
6. Samples were read in a microtiter-plate reading fluorimeter capable of excitation at a wavelength in the range 350-380 nm and detection of emitted light in the range 440-460 nm.

Row | EC50 | greater potency for HDAC6 as compared to HDAC1 | more selective for HDAC6 as compared to HDAC1 (Example 6, FIG. 18) | more selective for HDAC6 as compared to HDAC3 (Example 6, FIG. 18) | IC50 (Example 6, FIG. 18, 2 mg/mL formulation in 5% DMSO/40% PEG 400/55% PBS, read-out: IC50 against HDAC6 protein) | selectivity for HDAC6 as compared to pan-HDACs (and HDAC1, HDAC3), in words (listed as N^1-(2-(2,6-dioxopiperidin-3-yl)-1-oxoisoindolin-4-yl)-N^8-hydroxyoctanediamide) | SMILES | selectivity for HDAC6 as compared to pan-HDACs (and HDAC1, HDAC3), in words
1 | 52 nM and 68 nM | 83 fold |  |  |  |  | O=C(CCCCCCC(=O)NC1CCC(=O)NC1=O)NO (stereo not shown) [SP-2-59, N^1-(2,6-dioxopiperidin-3-yl)-N^8-hydroxyoctanediamide] | substantial preference and selectivity for HDAC6
2 | 6.2 nM | 258 fold | about 26 times | about 51 times | 60 nM | surprising selective for HDAC6 | O=C(CCCCCCC(=O)Nc1cccc2c1CN(C1CCC(=O)NC1=O)C2=O)NO (stereo not shown) [SP-2-93, N^1-(2-(2,6-dioxopiperidin-3-yl)-1-oxoisoindolin-4-yl)-N^8-hydroxyoctanediamide] | substantial preference and selectivity for HDAC6; also recorded: highly selective for HDAC 6
